Laboratory results taken from US20170280722A1, “COMPOSITIONS AND METHODS FOR CONTROL OF SAND FLIES AND OTHER BLOOD SUCKING INSECTS” (GENESIS LABORATORIES, INC., priority 2010, published 2017).
“Also recorded” adds a separate entry of the source.

Test system: P. argentipes 1st instar larvae
Experiment: Larval bioassay with feces of insecticide treated R. rattus (feed through)
Format: in vivo
Description: In the first study, a feed through study comparing diflubenzuron, fipronil, ivermectin, and eprinomectin was conducted on rats (Rattus rattus). Fecal samples were collected after three (3) consecutive days of administration of the trial products. The efficacy of the drugs administered during the blind study underwent testing in larval bioassays with P. argentipes 1st instar larvae. Commercially available chicken feed was mixed with the appropriate concentrations of each insecticide compound and used as is in the trial.
Twelve (12) locally purchased rats (Rattus rattus) of mixed sex were utilized in a small study testing the efficacy of four feed through insecticides. Five treatment groups of two rats each were randomly identified and fed diets consisting of locally available chicken feed treated with one of the following compounds: diflubenzuron (0.048%), fipronil (0.015%), ivermectin (0.025%), and eprinomectin (0.01% and 0.025%). Two rats served as control and were fed only chicken feed. Rats were fed 20 g of their assigned diet daily at the same time, with daily consumption and spillage calculated for a period of three (3) days. Sand fly analyses were conducted simultaneously.
[…] Collected feces were dried at approximately 40° C. in an oven then ground into a fine powder utilizing a pestle and mortar and frozen at −20° C. until larval bioassays were initiated.
Larval bioassay pots were prepared using 48 mm, 100 g round Dibbi jars. Dishes were prepared by burning several small holes into the bottom of the dish with a soldering iron and filling them with a small layer of plaster (¼ to ½ inch depth). Approximately 15-20 holes were punctured into the lids using 24 gauge needles. For simpler mortality counting, pots were quartered and each quadrant numbered using an ultra fine black Sharpie.
For each individual post-treatment bioassays, thirteen (13) dishes were loaded with 10 day old 1st instar P. argentipes larvae; twelve (12) pots were provided with approximately 0.005 g of the treated feces, with two sample pots per treated bandicoot rat, and one overall control sample fed only standard larval diet. See Table 1 for sample/treatment correlations. Larvae were loaded into bioassay pots and provided with their designated treatment sample. Mortality counts of larvae were conducted every 24 hours post-treatment until 100% mortality, or pupation, was reached.

[1] = feces of R. rattus day-1 post treatment, 150 ppm

N#Cc1nn(-c2c(Cl)cc(C(F)(F)F)cc2Cl)c(N)c1[S+]([O-])C(F)(F)F (centres unmarked) [fipronil]
Mean ± SEM survival (days) of P. arg larvae post-exposure [1]: 2.25 ± 0.10 days | P. argentipes larvae mortality (%) [1]: 100% | Day of observation by which 100% larval mortality was reached (feces of R. rattus fed 0.015% in feed): ≤ 3 days | Time to paralysis of larvae after exposure (larvae exposed to feces of fipronil-treated animals): ≤ 24 h | Speed of mortality and duration of effectiveness compared with the other compounds tested (larval P. argentipes, rodent feed through trials): quickest mortality and longest lasting effectiveness of all of the compounds tested; also recorded: quickest knockdown and longest lasting efficacy of all of the insecticides examined
